# In patent US20260207769A1, “ANTIBODY DRUG CONJUGATES” (YALE UNIVERSITY, priority 2022, published 2026):
# Assays:
# HCT116- IDH1^mut cells = experiment: Cell viability of HCT116-IDH1mut cells; format: cell-based
# Description: WT and mutant IDH1 (IDH1^mut) HCT116 cells were treated with different concentrations of SN38, cD31N antibody, or cD31N-SN38 conjugate. The effects of 3E10-cD31N-SN38 conjugate treatment on HCT116 WT and HCT116IDH1^mut were investigated.
# DLD-1 cells = experiment: treatment duration, single dose of SN38 or 3E10-SN38 conjugates, cancer cell growth (Example 7); format: cell-based; conditions: effects dose dependent
# From the text: FIGS. 14, 15, and 16 show the cell viability of WT and BRCA2^−/− DLD-1 cells after treatment with SN38, cWT-SN38 or cD31N-SN38 at 3, 5, and 7 days post-treatment, respectively.
# FIGS. 14A, 15A, and 16A show the viability of WT DLD-1 cells and FIGS. 14B, 15B, and 16B show the viability of BRCA2^−/−- DLD-1 cells. The calculated EC50 values are provided.
# FIGS. 17 and 18 show the effects of shorter and longer term treatment on cell viability in WT DLD-1 cells (FIGS. 17A and 17B) and BRCA2^−/−- DLD-1 cells (FIGS. 18A and 18B) at day 7 after treatment with SN38 or cD31N-SN38 conjugate. Shorter term treatment was defined as a 24 hour treatment followed by a change to fresh treatment-free media. Longer term treatment was defined as 7 days of treatment without a change of medium. The calculated EC50 values are provided.
compound,measurement,setting,value
"CCc1c2c(nc3ccc(O)cc13)-c1cc3c(c(=O)n1C2)COC(=O)[C@]3(O)CC [SN38, SN-38]",cell viability,HCT116- IDH1^mut cells; 5 days of treatment,substantial loss in cell viability
same,cell viability,HCT116- IDH1^mut cells; 7 days of treatment,substantial loss in cell viability
same,long-term effects on cancer cell growth,DLD-1 cells,can have long-term effects on cancer cell growth
